The values below come from patent publication US4087548A, “Complement inhibitors” (American Cyanamid Company, priority 1976, dated 1978).

For assay [1], the system named is guinea pigs. Briefly: Forssman Shock Test. The format is in vivo, guinea pig. Conditions: control = 3.15 minutes. An excerpt:
(§1) This test measures the ability of activated human C1 to destroy fluid phase human C2 in the presence of C4 and appropriate dilutions of the test compound. An active inhibitor protects C2 from C1 and C4; (ii) Test, Code 035 (C3-C9 inhibitor) -- This test determines the ability of the late components of human complement (C3-C9) to lyse EAC 142 in the presence of appropriate dilutions of the test compound. An active inhibitor protects EAC 142 from lysis by human C3-C9; (iii) Test, Code 036 (C-Shunt inhibitor) -- In this test human erythrocytes rendered fragile are lysed in autologous serum via the shunt pathway activated by cobra venom factor in the presence of appropriate dilutions of the test compound. Inhibition of the shunt pathway results in failure of lysis; (iv) Forssman Vasculitis Test -- Here, the well known complement dependent lesion, Forssman vasculitis, is produced in guinea pigs by intradermal injection of rabbit anti-Forssman antiserum. The lesion is measured in terms of diameter, edema and hemorrhage and the extent to which a combined index of these is inhibited by prior intraperitoneal injection of the test compound at 200 mg/kg is then reported, unless otherwise stated; (v) Forssman Shock Test -- Lethal shock is produced in guinea pigs by an i.v. injection of anti-Forssman antiserum and the harmonic mean death time of treated guinea pigs is compared with that of simultaneous controls; (vi) Complement Level Reduction Test -- In this test, the above dosed guinea pigs, or others, are bled for serum and the complement level is determined in undiluted serum by the capillary tube method of U.S. Pat. No. 3,876,376 and compared to undosed control guinea pigs; and (vii) Cap 50 Test -- Here, appropriate amounts of the test compound are added to a pool of guinea pig serum in vitro, after which the undiluted serum capillary tube assay referred to above is run. The concentration of compound inhibiting 50% is reported.
***Harmonic mean death time in minutes. (control = 3.15 minutes).

Assay [2] has as its system shunt pathway activated by cobra venom factor. Briefly: Test, Code 036 (C-Shunt inhibitor), lysis of human erythrocytes in autologous serum. The format is cell-based. The following applies: serial two-fold dilutions assay; higher well number indicates higher activity.
Excerpt: as §1
(§2) **Numbers represent activity in wells, a serial dilutions assay, higher
(§3) well number indicates higher activity. The serial dilutions are two-fold.

The subject of assay [3] is late components of human complement (C3-C9). Briefly: Test, Code 035 (C3-C9 inhibitor), lysis of EAC 142. The assay is classed as cell-based. The following applies: serial two-fold dilutions assay; higher well number indicates higher activity. How it is done:
as §1, with “An active inhibitor protects EAC 142 from lysis by human C3-C9; (iii) Test, Code 036 (C-Shunt inhibitor) -- In this test human erythrocytes rendered fragile are lysed in autologous serum via the shunt pathway activated by cobra venom factor in the presence of appropriate dilutions of the test compound. Inhibition of the shunt pathway results in failure of lysis; (iv) Forssman Vasculitis Test -- Here, the well known complement dependent lesion, Forssman vasculitis, is produced in guinea pigs by intradermal injection of rabbit anti-Forssman antiserum.” left out, “The concentration of compound inhibiting 50% is reported.” left out

The target of assay [4] is T1, activated human C1 (Homo sapiens, UniProt P09871).
T1 construct: C1s cleaved into disulfide-linked heavy and light chains; fluid-phase C2 consumption with C4
T1 sequence (P09871 16-688): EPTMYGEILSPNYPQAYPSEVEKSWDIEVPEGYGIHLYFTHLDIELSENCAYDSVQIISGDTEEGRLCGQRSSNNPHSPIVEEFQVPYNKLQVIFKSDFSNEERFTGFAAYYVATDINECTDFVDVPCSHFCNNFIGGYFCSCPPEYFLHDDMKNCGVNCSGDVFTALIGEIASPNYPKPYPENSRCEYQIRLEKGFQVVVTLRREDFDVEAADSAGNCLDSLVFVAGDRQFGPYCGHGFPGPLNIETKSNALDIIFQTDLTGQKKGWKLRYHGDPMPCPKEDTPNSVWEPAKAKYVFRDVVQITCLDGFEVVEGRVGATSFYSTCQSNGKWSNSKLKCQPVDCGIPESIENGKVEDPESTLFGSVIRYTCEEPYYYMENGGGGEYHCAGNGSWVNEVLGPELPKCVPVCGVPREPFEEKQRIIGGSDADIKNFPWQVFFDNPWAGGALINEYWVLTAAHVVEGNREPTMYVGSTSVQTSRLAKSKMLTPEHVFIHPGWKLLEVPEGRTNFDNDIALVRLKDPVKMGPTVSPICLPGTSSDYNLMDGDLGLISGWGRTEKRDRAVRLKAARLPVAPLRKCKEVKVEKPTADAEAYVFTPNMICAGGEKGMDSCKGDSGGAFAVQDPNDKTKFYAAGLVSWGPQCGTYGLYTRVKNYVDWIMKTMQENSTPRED
T1 sequence (P00736 18-705 partner): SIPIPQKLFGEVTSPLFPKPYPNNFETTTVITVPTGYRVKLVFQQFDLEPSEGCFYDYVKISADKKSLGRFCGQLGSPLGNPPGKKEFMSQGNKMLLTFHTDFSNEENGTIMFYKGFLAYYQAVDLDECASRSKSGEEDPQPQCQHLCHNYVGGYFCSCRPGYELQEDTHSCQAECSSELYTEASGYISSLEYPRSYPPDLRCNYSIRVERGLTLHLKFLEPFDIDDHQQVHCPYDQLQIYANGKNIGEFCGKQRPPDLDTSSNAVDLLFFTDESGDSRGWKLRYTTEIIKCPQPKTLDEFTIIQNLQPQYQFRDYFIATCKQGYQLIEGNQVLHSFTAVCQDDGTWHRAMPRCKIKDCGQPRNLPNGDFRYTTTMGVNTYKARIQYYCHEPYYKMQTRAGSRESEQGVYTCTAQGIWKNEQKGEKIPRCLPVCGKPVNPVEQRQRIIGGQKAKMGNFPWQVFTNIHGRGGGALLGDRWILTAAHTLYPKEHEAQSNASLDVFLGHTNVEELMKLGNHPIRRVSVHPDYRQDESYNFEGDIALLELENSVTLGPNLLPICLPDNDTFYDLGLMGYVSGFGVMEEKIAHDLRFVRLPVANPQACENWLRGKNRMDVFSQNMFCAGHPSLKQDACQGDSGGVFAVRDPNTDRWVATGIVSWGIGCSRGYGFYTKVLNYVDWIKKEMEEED
T1 sequence (P02745 23-245 partner): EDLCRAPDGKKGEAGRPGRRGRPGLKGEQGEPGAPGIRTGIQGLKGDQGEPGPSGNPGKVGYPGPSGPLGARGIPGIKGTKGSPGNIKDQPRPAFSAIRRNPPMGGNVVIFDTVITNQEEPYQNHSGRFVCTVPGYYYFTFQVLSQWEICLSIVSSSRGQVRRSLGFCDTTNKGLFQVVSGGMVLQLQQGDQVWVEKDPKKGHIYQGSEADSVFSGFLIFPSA
T1 sequence (P02746 28-253 partner): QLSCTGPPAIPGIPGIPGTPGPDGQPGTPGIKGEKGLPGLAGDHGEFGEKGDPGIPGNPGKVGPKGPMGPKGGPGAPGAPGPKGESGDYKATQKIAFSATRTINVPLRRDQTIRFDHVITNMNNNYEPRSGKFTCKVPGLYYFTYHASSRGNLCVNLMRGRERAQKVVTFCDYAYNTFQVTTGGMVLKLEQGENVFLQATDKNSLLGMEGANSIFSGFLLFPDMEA
T1 sequence (P02747 29-245 partner): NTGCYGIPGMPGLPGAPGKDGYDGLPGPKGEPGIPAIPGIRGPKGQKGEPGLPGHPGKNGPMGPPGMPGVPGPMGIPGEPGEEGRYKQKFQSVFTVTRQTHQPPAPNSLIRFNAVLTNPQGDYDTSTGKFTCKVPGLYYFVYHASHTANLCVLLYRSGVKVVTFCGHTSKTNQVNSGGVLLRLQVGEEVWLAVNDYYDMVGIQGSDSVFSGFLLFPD
Briefly: Test, Code 026 (C1 inhibitor). The assay is classed as biochemical. The following applies: serial two-fold dilutions assay; higher well number indicates higher activity.
Excerpt: as §1, §2, §3

Structures can show the parent of a compound that is named as a salt.

For the molecule `O=C(Nc1cccc(C(=O)Nc2cc3c(S(=O)(=O)[O-])cc(S(=O)(=O)[O-])cc3cc2S(=O)(=O)[O-])c1)Nc1cccc(C(=O)Nc2cc3c(S(=O)(=O)[O-])cc(S(=O)(=O)[O-])cc3cc2S(=O)(=O)[O-])c1.[Na+].[Na+].[Na+].[Na+].[Na+].[Na+]` [7,7'-[Ureylenebis(m-phenylenecarbonylimino)]di-1,3,6-naphthalenetrisulfonic acid, hexasodium salt], the “Forssman Shock, harmonic mean death time” value in assay [1] (route not given) is 14 min. Besides, the “Code 036 (activity in wells)” value in assay [2] was “+1 wells”. For the same molecule, the “Code 035 (activity in wells)” value in assay [3] was “+1 wells”. As to `Nc1cccc(C(=O)Nc2cc3c(S(=O)(=O)[O-])cc(S(=O)(=O)[O-])cc3cc2S(=O)(=O)[O-])c1.[Na+].[Na+].[Na+]` [7-(m-Aminobenzamido)-1,3,6-naphthalenetrisulfonic acid, trisodium salt], the “Forssman Shock, harmonic mean death time” value in assay [1] (route not given) turned out to be 33 min.

Turning to `O=C(Nc1cc2c(S(=O)(=O)[O-])cc(S(=O)(=O)[O-])cc2cc1S(=O)(=O)[O-])c1cccc([N+](=O)[O-])c1.[Na+].[Na+].[Na+]` [7-m-Nitrobenzamido-1,3,6-naphthalenetrisulfonic acid, trisodium salt], the “Forssman Shock, harmonic mean death time” value in assay [1] (route not given) came to 20 min. `Cc1ccc(C(=O)Nc2cc(S(=O)(=O)O)cc3cc(S(=O)(=O)O)cc(S(=O)(=O)O)c23)cc1NC(=O)Nc1cc(C(=O)Nc2cc(S(=O)(=O)O)cc3cc(S(=O)(=O)O)cc(S(=O)(=O)O)c23)ccc1C` [8,8'-[Ureylenebis(4-methyl-m-phenylenecarbonylimino)]di-1,3,6-naphthalenetrisulfonic acid, hexasodium salt]: the “Forssman Shock, harmonic mean death time” value in assay [1] (i.p.) was determined as 28 min; in assay [1] (i.v.), 46 min. In the case of `Cc1ccc(NC(=O)Nc2ccc(C)c(C(=O)Nc3cc(S(=O)(=O)O)cc4cc(S(=O)(=O)O)cc(S(=O)(=O)O)c34)c2)cc1C(=O)Nc1cc(S(=O)(=O)O)cc2cc(S(=O)(=O)O)cc(S(=O)(=O)O)c12` [8,8'-[Ureylenebis(6-methyl-m-phenylenecarbonylimino)]di-1,3,6-naphthalenetrisulfonic acid, hexasodium salt], the “Forssman Shock, harmonic mean death time” value in assay [1] (route not given) is 11 min. The “Code 026 (activity in wells)” value in assay [4] is given as “+5 wells”. In addition, the “Code 035 (activity in wells)” value in assay [3] is recorded as “+4 wells”.

Take `O=C(Nc1cccc(C(=O)Nc2cc(S(=O)(=O)[O-])cc3cc(S(=O)(=O)[O-])cc(S(=O)(=O)[O-])c23)c1)Nc1cccc(C(=O)Nc2cc(S(=O)(=O)[O-])cc3cc(S(=O)(=O)[O-])cc(S(=O)(=O)[O-])c23)c1.[Na+].[Na+].[Na+].[Na+].[Na+].[Na+]` [8,8'-[Ureylenebis(m-phenylenecarbonylimino)]di-1,3,6-naphthalenetrisulfonicacid, hexasodium salt]: the “Code 026 (activity in wells)” value in assay [4] is listed as “+6 wells”. In addition, the “Code 036 (activity in wells)” value in assay [2] is reported as “+1 wells”. On to `O=C(Nc1ccc(C(=O)Nc2cc(S(=O)(=O)[O-])cc3cc(S(=O)(=O)[O-])cc(S(=O)(=O)[O-])c23)cc1)Nc1ccc(C(=O)Nc2cc(S(=O)(=O)[O-])cc3cc(S(=O)(=O)[O-])cc(S(=O)(=O)[O-])c23)cc1.[Na+].[Na+].[Na+].[Na+].[Na+].[Na+]` [8,8'-[Ureylenebis(p-phenylenecarbonylimino)]di-1,3,6-naphthalenetrisulfonicacid, hexasodium salt], for which the “Code 026 (activity in wells)” value in assay [4] is reported as “+4 wells”. `Cc1ccc(C(=O)Nc2cc(S(=O)(=O)O)cc3cc(S(=O)(=O)O)cc(S(=O)(=O)O)c23)cc1NC(=O)C(=O)Nc1cc(C(=O)Nc2cc(S(=O)(=O)O)cc3cc(S(=O)(=O)O)cc(S(=O)(=O)O)c23)ccc1C` [8,8'-{Oxalylbis {{[imino(4-methyl-1,3-phenylene)]carbonyl}imino}}di-1,3,6-naphthalenetrisulfonic acid, hexasodium salt]: in assay [4], the “Code 026 (activity in wells)” value is “+4 wells”. For the same molecule, in assay [2], the “Code 036 (activity in wells)” value is “+3 wells”. As to `Cc1ccc(NC(=O)Nc2cc(S(=O)(=O)O)cc3cc(S(=O)(=O)O)cc(S(=O)(=O)O)c23)cc1NC(=O)Nc1cc(NC(=O)Nc2cc(S(=O)(=O)O)cc3cc(S(=O)(=O)O)cc(S(=O)(=O)O)c23)ccc1C` [8,8'-{Ureylenebis[(4-methyl-m-phenylene)ureylene]}di-1,3,6-naphthalenetrisulfonic acid, hexasodium salt], the “Code 026 (activity in wells)” value in assay [4] is given as “+4 wells”. Besides, in assay [2], the “Code 036 (activity in wells)” value is “+1 wells”. For `Cc1ccc(C(=O)Nc2cc(S(=O)(=O)O)cc3cc(S(=O)(=O)O)cc(S(=O)(=O)O)c23)cc1N` [8-(3-Amino-p-toluamido)-1,3,6-naphthalenetrisulfonic acid, trisodium salt], in assay [1] (route not given), the “Forssman Shock, harmonic mean death time” value is 14 min. Besides, in assay [4], the “Code 026 (activity in wells)” value was “+3 wells”.

`Cc1ccc(C(=O)Nc2cc(S(=O)(=O)O)cc3cc(S(=O)(=O)O)cc(S(=O)(=O)O)c23)cc1[N+](=O)[O-]` [8-(3-Nitro-p-toluamido)-1,3,6-naphthalenetrisulfonic acid, trisodium salt]: in assay [1] (route not given), the “Forssman Shock, harmonic mean death time” value was found to be 25 min. Besides, in assay [4], the “Code 026 (activity in wells)” value is “+2 wells”.

Turning to `Cc1cc(C(=O)Nc2cc(S(=O)(=O)O)cc3cc(S(=O)(=O)O)cc(S(=O)(=O)O)c23)ccc1N` [8-(4-Amino-m-toluamido)-1,3,6-naphthalenetrisulfonic acid, trisodium salt], in assay [1] (route not given), the “Forssman Shock, harmonic mean death time” value was 14 min. Besides, the “Code 026 (activity in wells)” value in assay [4] is listed as “+3 wells”.

Consider `Cc1cc(C(=O)Nc2cc(S(=O)(=O)O)cc3cc(S(=O)(=O)O)cc(S(=O)(=O)O)c23)ccc1[N+](=O)[O-]` [8-(4-Nitro-m-toluamido)-1,3,6-naphthalenetrisulfonic acid, trisodium salt], for which, in assay [1] (route not given), the “Forssman Shock, harmonic mean death time” value is 46 min. In addition, the “Code 026 (activity in wells)” value in assay [4] was “+1 wells”.

For the molecule `Cc1ccc(N)cc1C(=O)Nc1cc(S(=O)(=O)O)cc2cc(S(=O)(=O)O)cc(S(=O)(=O)O)c12` [8-(5-Amino-o-toluamido)-1,3,6-naphthalenetrisulfonic acid, trisodium salt], the “Forssman Shock, harmonic mean death time” value in assay [1] (route not given) amounted to 14 min. With `Nc1ccc(C(=O)Nc2cc(S(=O)(=O)[O-])cc3cc(S(=O)(=O)[O-])cc(S(=O)(=O)[O-])c23)cc1.[Na+].[Na+].[Na+]` [8-(p-Aminobenzamido)-1,3,6-naphthalenetrisulfonic acid, trisodium salt], the “Forssman Shock, harmonic mean death time” value in assay [1] (route not given) turned out to be 10 min. In addition, the “Code 026 (activity in wells)” value in assay [4] is given as “+3 wells”. For `Nc1cccc(C(=O)Nc2cccc(C(=O)Nc3cc(S(=O)(=O)[O-])cc4cc(S(=O)(=O)[O-])cc(S(=O)(=O)[O-])c34)c2)c1.[Na+].[Na+].[Na+]` [8-[m-(m-Aminobenzamido)benzamido]-1,3,6-naphthalene-trisulfonic acid, trisodium salt], in assay [4], the “Code 026 (activity in wells)” value is “+2 wells”. For the molecule `O=C(Nc1cc(S(=O)(=O)[O-])cc2cc(S(=O)(=O)[O-])cc(S(=O)(=O)[O-])c12)c1ccc([N+](=O)[O-])cc1.[Na+].[Na+].[Na+]` [8-p-Nitrobenzamido-1,3,6-naphthalenetrisulfonic acid, trisodium salt], in assay [1] (route not given), the “Forssman Shock, harmonic mean death time” value came to 13 min. For the same molecule, the “Code 026 (activity in wells)” value in assay [4] is on record as “+1 wells”. With `Cc1ccc(NC(=O)Nc2cccc(C(=O)Nc3cc(S(=O)(=O)[O-])cc4cc(S(=O)(=O)[O-])cc(S(=O)(=O)[O-])c34)c2)cc1[N+](=O)[O-].[Na+].[Na+].[Na+]` [8-{m-[3-(3-Nitro-p-tolyl)ureido]benzamido}-1,3,6-naphthalenetrisulfonic acid, trisodium salt], in assay [1] (route not given), the “Forssman Shock, harmonic mean death time” value turned out to be 32 min. In addition, the “Code 026 (activity in wells)” value in assay [4] is given as “+2 wells”.
